Each structure is given as a SMILES string.

Consider 1 compound from patent US20140243415A1, “COMPOUNDS INHIBITING GALECTIN-1 EXPRESSION, CANCER CELL PROLIFERATION, INVASION, AND TUMORIGENESIS” (ONCOETHIX SA, priority 2011, published 2014).

Experiment [1] has as its system COL0205-S and COL0205-R cells. Put plainly: Antiproliferative effects, epithelial vs mesenchymal COLO205. The format is cell-based, human. From the text:
(§1) FIG. 2. Epithelial-to-mesenchymal differentiation and OTX-008 sensitivity. A—Correlations between galectin-1 (LGALS1) and vimentin, E-cadherin (CDH1) and N-cadherin (CDH2) relative mRNA expression. B—Correlations between OTX-008 IC50s and vimentin, E-cadherin (CDH1) and N-cadherin (CDH2) relative mRNA expression. C—Antiproliferative effects of OTX-008 in epithelial COLO205-S and mesenchymal COLO205-R colon cancer cells. D—Antiproliferative effects of OTX-008 in SNAIL-inducible colon cancer cell lines. E—Antiproliferative effects of OTX-008 in shWISP breast cancer cell lines.
(§2) Cell survival was determined using the MTT assay (3-[4,5-dimethylthiazol-2-yl]-2,5-diphenyltetrazolium bromide; Sigma, Saint-Quentin Fallavier, France). The conversion of yellow water-soluble tetrazolium MTT into purple insoluble formazan is catalyzed by mitochondrial dehydrogenases and used to estimate the number of viable cells. In brief, cells were seeded in 96-well tissue culture plates at a density of 2×10^3 cells/well. […] After incubation, the supernatant was discarded, insoluble formazan precipitates were dissolved in 0.1 ml of DMSO and the absorbance was measured at 560 nm by use of a microplate reader (Thermo, France). […] IC50's were determined as the halves of maximal inhibitory drug concentration for each cell line. […]

Experiment [2] has as its system DLD-1TR21 colon cancer cells. As to the kind of experiment: Antiproliferative effects, SNAIL-inducible model. In kind it is cell-based, human. The following applies: SNAIL-inducible DLD-1TR21.
From the text: as §1, §2

With `CN(C)CCNC(=O)COc1c2cccc1Cc1cccc(c1OCC(=O)NCCN(C)C)Cc1cccc(c1OCC(=O)NCCN(C)C)Cc1cccc(c1OCC(=O)NCCN(C)C)C2` [OTX-008], in experiment [1], the “activity in epithelial vs mesenchymal cells” value is given as “markedly more active in COL0205-S cells than in COL0205-R cells”. For the same compound, the “effect of SNAIL induction on sensitivity” value in experiment [2] is recorded as “no impact on sensitivity”.
